# Test results from paper PMC5458078, “Global mapping of CARM1 substrates defines enzyme specificity and substrate recognition” (Nature Communications, 2017).
# Test system: MCF7 cells
# Test: Quantitative nanoLC-MS/MS (TMT) of ADMA-containing peptides, CARM1 KO vs parental
# Assay type: cell-based, human
# Set-up: Fold change KO/WT: scale not given here
# Details: ADMA-containing peptide, CARM1 knockout (KO) vs wild type (WT) MCF7 cells; 6-plex TMT experiment #1; three biological replicates each; sheet "MCF7"
row,Substance,Fold change KO/WT
1,FDGQPGQPSLLPrFDGLHGQPGPrFER,-2.047
2,FDGSPGQMGGGGPLrFEGPQGQLGGGCPLrFEGPPGPVGTPLrFEGPIGQAGGGGFR,-4.068
3,FEGGHGPSGAAIrFDGPHGQPGGGIrFEGPLLQQGVGMrFEGPHGQSVAGLR,-1.343
4,FEGPQGQLGGGCPLrFEGPPGPVGTPLrFEGPIGQAGGGGFR,-2.35
5,FEGQHNQLGGNLrFEGPHGQPGVGIrFEGPLVQQGGGMrFEGPSVPGGGLR,-1.477
6,FFEAAAGSGSSAGAGDGAGPQrLPEPGGRPR,-1.059
7,GIPLDAAAAYYLPrHLAPNPTYPHLYPPYLIrGYPDTAALENR,-1.386
8,GLPTTTQrVGVPTAVQNLAPrAAVAAAAPrAVAPYK,-2.96
9,GMQHFPPGPGGPMPGPHGGPGGPVGPrLLGPPPPPR,-1.283
10,GPPPFPGVPLMSTPMGGPVPPPIrYGPPPQLCGPFGPrPLPPPFGPGMrPPLGLREFAPGVPPGrR,-2.997
11,GPVGQALPrPQAPPrLQSLMGTVQQGAQSWQQR,-3.859
12,GQPVGGLrFEGPHGQPVGGLrFDNPR,-1.132

# Same assay, conditions: ADMA-containing peptide, MCF7, CARM1 knockout (KO1-3) vs wild type (WT1-3), TMT 6-plex experiment #1
row,Substance,Fold change KO/WT
1,FAPrGAPHFrFIIAGR,-0.1223
2,FGDMSYSIrHSISMPAMR,-3.258
3,FrPNPLNNPR,0.07251
4,GAAGAVTQSLSrTPTATTSGIrATLTPTVLAPrLPQPPQNPTNIQNFQLPPGMVLVR,-4.565
5,GAPHFrFIIAGR,-0.1995
6,GASQAGMTGYGMPrQIL,-2.889
7,GMYNQrYHCPVPK,-2.857

# Same assay, conditions: CARM1 KO vs wild type MCF7 cells, 3 biological replicates each
row,Substance,Fold change KO/WT
1,GPrFEGNRPDGPrPrYEGHPAEGTK,-2.637
2,GPrFEGNrPDGPrPrYEGHPAEGTK,-5.083

# Same assay, conditions: MCF7, CARM1 KO (KO1-KO3) vs wild type (WT1-WT3)
row,Substance,Fold change KO/WT
1,FIQPrPTLNQPPPPLIRPANSMPPR,-1.409
2,FIQPrPTLNQPPPPLIrPANSMPPR,-1.957
3,FLQPrLAPNQPPPPLIrPALAAPR,-3.157
4,FrLSLFSDLPEDTELQR,-2.692
5,GGrGrGSLNHMVVDHRPK,0.3337
6,GPLPPPRPTPrPPVPPrGPLrGPLPQ,-0.7434
7,GQPrTWLQSPV,-3.17
8,GRPSSPrTPLYLQPDAYGSLDR,-1.386

# Same assay, conditions: MCF7, CARM1 KO vs WT, three biological replicates each
row,Substance,Fold change KO/WT
1,FArVPLALHPVVGQPFLK,-2.764
2,FCAFGGNPPVTGPrSALAPNLLTSGK,-4.63
3,FPAGArYAGAGGLER,-0.6954
4,FSPNPPQQGAVrPQTLNFSSR,-3.724
5,GALSISAPLGDFrHTLHVGR,-1.149
6,GArGLMNGYR,0.02481
7,GArLPGPVSSAR,-2.095

# Same assay, conditions: MCF7, CARM1 knockout vs wild type, n = 3 each
row,Substance,Fold change KO/WT
1,ErYLGGIK,0.4212
2,FGGPVHHQAQrFR,-0.6051
3,GGAPFQFGGQrRPLLSQLK,-0.3698
4,GGGSGNFMGrGGNFGGGGGNFGrGGNFGGrGGYGGGGGGSR,-0.1359
5,GGrGPFPLQVVSVGGPAR,-0.2975
6,GGrGrGGSGGGGGGGGGGYNR,-0.05268
7,GILPMNPrNMMNHSQVGQGIGIPSR,-1.864
8,GPGGPrGGLGGGMR,0.08213
9,GPPLArLPHDPGVFR,-1.8
10,GPVTPGGLPPrGLLGDAPNDPR,-1.652
11,GQLFrLPSALNR,-4.127

# Same assay, conditions: MCF7 CARM1 knockout vs wild type, 3 biological replicates each; values are on log2 scale
row,Substance,Fold change KO/WT
1,FrHNIAYFPQIVSVAAR,-0.6457
2,GFYPQYGALETrGGFNPR,-0.3326
3,GLGPGGTPFPGQGPPQrPrFYPVSEDPHR,-1.165
4,GPPGGNrGGFQNrGGGSGGGGNYrGGFNR,0.2458
5,GPPPGSANPPrLVSSYrLK,-2.444

# Test system: MCF7 CARM1 KO cells
# Test: Quantitative MS of ADMA-containing peptides in MCF7 CARM1 KO cells expressing CARM1 28-608 or CARM1 140-608, and in CARM1 KO
# Assay type: cell-based, human
# Details: not given
Substance,CARM1 140-608/WT,KO/WT
GMYNQrYHCPVPK,-2.175,-2.857

# Same assay, conditions: CARM1 140-608 versus WT, difference of mean log2 values
row,Substance,CARM1 140-608/WT
1,GPrFEGNRPDGPrPrYEGHPAEGTK,-1.638
2,GPrFEGNrPDGPrPrYEGHPAEGTK,-4.084

# Same assay, conditions: CARM1 140-608 versus WT, mean of three replicates (log2)
row,Substance,CARM1 140-608/WT
1,FDGQPGQPSLLPrFDGLHGQPGPrFER,-1.6986
2,FDGSPGQMGGGGPLrFEGPQGQLGGGCPLrFEGPPGPVGTPLrFEGPIGQAGGGGFR,0.07812
3,FEGGHGPSGAAIrFDGPHGQPGGGIrFEGPLLQQGVGMrFEGPHGQSVAGLR,-0.8121
4,FEGPQGQLGGGCPLrFEGPPGPVGTPLrFEGPIGQAGGGGFR,1.054
5,FEGQHNQLGGNLrFEGPHGQPGVGIrFEGPLVQQGGGMrFEGPSVPGGGLR,0.6048
6,GIPLDAAAAYYLPrHLAPNPTYPHLYPPYLIrGYPDTAALENR,-0.9413
7,GLPTTTQrVGVPTAVQNLAPrAAVAAAAPrAVAPYK,-1.934
8,GMQHFPPGPGGPMPGPHGGPGGPVGPrLLGPPPPPR,-0.7184
9,GQPVGGLrFEGPHGQPVGGLrFDNPR,0.02925
10,GRPSSPrTPLYLQPDAYGSLDR,-1.266

# Same assay, conditions: CARM1 140-608 vs WT, mean of 3 replicates (log2 scale)
row,Substance,CARM1 140-608/WT
1,FIQPrPTLNQPPPPLIRPANSMPPR,0.5669
2,FIQPrPTLNQPPPPLIrPANSMPPR,0.9302
3,FLQPrLAPNQPPPPLIrPALAAPR,0.3049
4,FrLSLFSDLPEDTELQR,-2.025
5,GGrGrGSLNHMVVDHRPK,0.3773
6,GPLPPPRPTPrPPVPPrGPLrGPLPQ,0.8489
7,GQPrTWLQSPV,-2.79

# Same assay, conditions: CARM1 140-608 vs WT, mean of 3 replicates, log2
row,Substance,CARM1 140-608/WT
1,FCAFGGNPPVTGPrSALAPNLLTSGK,-3.4143
2,FPAGArYAGAGGLER,-0.8137
3,GArGLMNGYR,0.7786
4,GArLPGPVSSAR,-1.788

# Same assay, conditions: CARM1 KO versus WT, difference of mean log2 values
row,Substance,KO/WT
1,GPrFEGNRPDGPrPrYEGHPAEGTK,-2.637
2,GPrFEGNrPDGPrPrYEGHPAEGTK,-5.484

# Same assay, conditions: KO versus WT, mean of three replicates (log2)
row,Substance,KO/WT
1,FDGQPGQPSLLPrFDGLHGQPGPrFER,-2.399
2,FDGSPGQMGGGGPLrFEGPQGQLGGGCPLrFEGPPGPVGTPLrFEGPIGQAGGGGFR,-4.068
3,FEGGHGPSGAAIrFDGPHGQPGGGIrFEGPLLQQGVGMrFEGPHGQSVAGLR,-1.343
4,FEGPQGQLGGGCPLrFEGPPGPVGTPLrFEGPIGQAGGGGFR,-2.35
5,FEGQHNQLGGNLrFEGPHGQPGVGIrFEGPLVQQGGGMrFEGPSVPGGGLR,-1.668
6,GIPLDAAAAYYLPrHLAPNPTYPHLYPPYLIrGYPDTAALENR,-1.386
7,GLPTTTQrVGVPTAVQNLAPrAAVAAAAPrAVAPYK,-2.638
8,GMQHFPPGPGGPMPGPHGGPGGPVGPrLLGPPPPPR,-1.425
9,GQPVGGLrFEGPHGQPVGGLrFDNPR,-0.8726
10,GRPSSPrTPLYLQPDAYGSLDR,-1.386

# Same assay, conditions: KO vs WT, mean of 3 replicates (log2 scale)
row,Substance,KO/WT
1,FIQPrPTLNQPPPPLIRPANSMPPR,-1.409
2,FIQPrPTLNQPPPPLIrPANSMPPR,-1.231
3,FLQPrLAPNQPPPPLIrPALAAPR,-2.801
4,FrLSLFSDLPEDTELQR,-2.692
5,GGrGrGSLNHMVVDHRPK,0.3337
6,GPLPPPRPTPrPPVPPrGPLrGPLPQ,-0.7434
7,GQPrTWLQSPV,-3.17

# Same assay, conditions: KO vs WT, mean of 3 replicates, log2
row,Substance,KO/WT
1,FCAFGGNPPVTGPrSALAPNLLTSGK,-5.047
2,FPAGArYAGAGGLER,-1.235
3,GArGLMNGYR,0.02481
4,GArLPGPVSSAR,-2.095

# Same assay, conditions: difference of log2 means, CARM1 140-608 vs WT
row,Substance,CARM1 140-608/WT
1,FFEAAAGSGSSAGAGDGAGPQrLPEPGGRPR,-1.027
2,GLGPGGTPFPGQGPPQrPrFYPVSEDPHR,-1.244
3,GPPPFPGVPLMSTPMGGPVPPPIrYGPPPQLCGPFGPrPLPPPFGPGMrPPLGLREFAPGVPPGrR,-1.1204
4,GPPPGSANPPrLVSSYrLK,-0.6365
5,GPVGQALPrPQAPPrLQSLMGTVQQGAQSWQQR,-1.639

# Same assay, conditions: difference of log2 means, KO vs WT
row,Substance,KO/WT
1,FFEAAAGSGSSAGAGDGAGPQrLPEPGGRPR,-1.059
2,GLGPGGTPFPGQGPPQrPrFYPVSEDPHR,-1.165
3,GPPPFPGVPLMSTPMGGPVPPPIrYGPPPQLCGPFGPrPLPPPFGPGMrPPLGLREFAPGVPPGrR,-2.997
4,GPPPGSANPPrLVSSYrLK,-1.758
5,GPVGQALPrPQAPPrLQSLMGTVQQGAQSWQQR,-3.859

# Same assay, conditions: log2 scale ratio, mean of n = 3
Substance,CARM1 140-608/WT,KO/WT
FAPrGAPHFrFIIAGR,-0.6829,-0.5952
FGDMSYSIrHSISMPAMR,-2.806,-3.258
FrPNPLNNPR,0.04278,0.4697
GAAGAVTQSLSrTPTATTSGIrATLTPTVLAPrLPQPPQNPTNIQNFQLPPGMVLVR,-3.099,-4.565
GAPHFrFIIAGR,-0.6361,-0.5643
GASQAGMTGYGMPrQIL,-2.236,-2.889

# Same assay, conditions: mean, CARM1 140-608 versus WT (log2 scale)
row,Substance,CARM1 140-608/WT
1,FrHNIAYFPQIVSVAAR,-0.3364
2,GFYPQYGALETrGGFNPR,-0.6578
3,GGGSGNFMGrGGNFGGGGGNFGrGGNFGGrGGYGGGGGGSR,-0.1884
4,GGrGrGGSGGGGGGGGGGYNR,0.1837
5,GPGGPrGGLGGGMR,0.09567
6,GPPGGNrGGFQNrGGGSGGGGNYrGGFNR,0.1824

# Same assay, conditions: mean, CARM1 KO versus WT (log2 scale)
row,Substance,KO/WT
1,FrHNIAYFPQIVSVAAR,-0.6457
2,GFYPQYGALETrGGFNPR,-0.432
3,GGGSGNFMGrGGNFGGGGGNFGrGGNFGGrGGYGGGGGGSR,-0.008363
4,GGrGrGGSGGGGGGGGGGYNR,0.3356
5,GPGGPrGGLGGGMR,-0.1983
6,GPPGGNrGGFQNrGGGSGGGGNYrGGFNR,0.1614

# Same assay, conditions: ratio on log2 scale, mean of 3 replicates
Substance,CARM1 140-608/WT,KO/WT
ErYLGGIK,0.1385,0.4212
FArVPLALHPVVGQPFLK,-2.105,-2.764
FGGPVHHQAQrFR,-0.8111,-0.6051
FSPNPPQQGAVrPQTLNFSSR,1.2079,-1.542
GALSISAPLGDFrHTLHVGR,-1.004,-1.149
GGAPFQFGGQrRPLLSQLK,0.1701,0.08114
GGrGPFPLQVVSVGGPAR,-0.1124,-0.2975
GILPMNPrNMMNHSQVGQGIGIPSR,-1.1659,-1.864
GPPLArLPHDPGVFR,-1.527,-1.8
GPVTPGGLPPrGLLGDAPNDPR,-1.495,-1.652
GQLFrLPSALNR,-1.812,-4.117
